Experimental data: ChEMBL document CHEMBL5518212, “Structure-Based Design of Novel G-Protein-Coupled Receptor TAAR1 Agonists as Potential Antipsychotic Drug Candidates” (J Med Chem, 2024)
In brackets after ≈: the same amount, converted by molar mass.

How the values were obtained:
[1] = molecular target: T1, Trace amine-associated receptor 1 (Homo sapiens, UniProt Q96RJ0); assay: Agonist activity at Gq-mediated TAAR1 activation (unknown origin) expressed in HEK293 cells pretreated with coelenterazine for 30 mins followed by compound addition by BRET assay; assay type: functional, cell-based
T1 sequence (Q96RJ0 whole entry): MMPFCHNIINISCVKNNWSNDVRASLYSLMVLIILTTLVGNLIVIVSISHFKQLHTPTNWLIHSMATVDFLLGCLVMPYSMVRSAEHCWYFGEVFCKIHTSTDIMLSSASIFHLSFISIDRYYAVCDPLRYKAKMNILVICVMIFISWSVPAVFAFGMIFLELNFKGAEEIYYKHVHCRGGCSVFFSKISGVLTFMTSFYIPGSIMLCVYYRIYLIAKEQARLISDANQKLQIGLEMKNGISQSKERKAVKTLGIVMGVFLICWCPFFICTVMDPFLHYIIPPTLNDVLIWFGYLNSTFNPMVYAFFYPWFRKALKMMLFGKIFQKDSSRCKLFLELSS

[2] = molecular target: T1, Trace amine-associated receptor 1; assay: Agonist activity at Gs-mediated TAAR1 activation (unknown origin) expressed in HEK293 cells pretreated with coelenterazine for 30 mins followed by compound addition by BRET assay; assay type: functional, cell-based
[3] = Acute toxicity in Kunming mouse assessed as change in body weight at 500 mg/kg, po measured after 7 days; assay type: organism-based; conditions: in vivo, 168 h, time 7 day
[4] = Oral bioavailability in Sprague-Dawley rat at 10 mg/kg measured upto 8 hrs by LC-MS/MS analysis; assay type: ADME, organism-based; conditions: in vivo
[5] = Tmax in Sprague-Dawley rat at 2 mg/kg, iv measured upto 8 hrs by LC-MS/MS analysis; assay type: ADME, organism-based; conditions: in vivo
[6] = Clearance in Sprague-Dawley rat at 2 mg/kg, iv measured upto 8 hrs by LC-MS/MS analysis; assay type: ADME, organism-based; conditions: in vivo
[7] = Tmax in Sprague-Dawley rat at 10 mg/kg, po measured upto 8 hrs by LC-MS/MS analysis; assay type: ADME, organism-based; conditions: in vivo
[8] = Acute toxicity in Kunming mouse assessed as abnormal behavior at 50 mg/kg, po administered every 2 days for 14 days; assay type: organism-based; conditions: in vivo, 336 h, time 14 day
[9] = Cmax in Sprague-Dawley rat at 2 mg/kg, iv measured upto 8 hrs by LC-MS/MS analysis; assay type: ADME, organism-based; conditions: in vivo
[10] = Solubility of the compound at pH 7; assay type: physicochemical; conditions: buffer
[11] = Toxicity in Kunming mouse assessed as liver damage at 50 mg/kg, po administered every 2 days for 14 days by H and E staining based assay; assay type: organism-based; conditions: in vivo, 336 h, time 14 day
[12] = Acute toxicity in Kunming mouse assessed as change in body weight at 50 mg/kg, po administered every 2 days for 14 days; assay type: organism-based; conditions: in vivo, 336 h, time 14 day
[13] = Solubility of the compound at pH 2; assay type: physicochemical; conditions: buffer
[14] = Toxicity in Kunming mouse assessed as kidney damage at 50 mg/kg, po administered every 2 days for 14 days by H and E staining based assay; assay type: organism-based; conditions: in vivo, 336 h, time 14 day
[15] = AUC(0 to t) in Sprague-Dawley rat at 10 mg/kg, po measured upto 8 hrs by LC-MS/MS analysis; assay type: ADME, organism-based; conditions: in vivo
[16] = Half-life in Sprague-Dawley rat at 10 mg/kg, po measured upto 8 hrs by LC-MS/MS analysis; assay type: ADME, organism-based; conditions: in vivo
[17] = Solubility of the compound at pH 7.4; assay type: physicochemical; conditions: buffer
[18] = AUC(0 to infinity) in Sprague-Dawley rat at 10 mg/kg, po measured upto 8 hrs by LC-MS/MS analysis; assay type: ADME, organism-based; conditions: in vivo
[19] = AUC(0 to t) in Sprague-Dawley rat at 2 mg/kg, iv measured upto 8 hrs by LC-MS/MS analysis; assay type: ADME, organism-based; conditions: in vivo
[20] = Cmax in Sprague-Dawley rat at 10 mg/kg, po measured upto 8 hrs by LC-MS/MS analysis; assay type: ADME, organism-based; conditions: in vivo
[21] = AUC(0 to infinity) in Sprague-Dawley rat at 2 mg/kg, iv measured upto 8 hrs by LC-MS/MS analysis; assay type: ADME, organism-based; conditions: in vivo
[22] = Half-life in Sprague-Dawley rat at 2 mg/kg, iv measured upto 8 hrs by LC-MS/MS analysis; assay type: ADME, organism-based; conditions: in vivo
[23] = Toxicity in Kunming mouse assessed as heart damage at 50 mg/kg, po administered every 2 days for 14 days by H and E staining based assay; assay type: organism-based; conditions: in vivo, 336 h, time 14 day
[24] = Toxicity in Kunming mouse assessed as spleen damage at 50 mg/kg, po administered every 2 days for 14 days by H and E staining based assay; assay type: organism-based; conditions: in vivo, 336 h, time 14 day
[25] = Toxicity in Kunming mouse assessed as lung damage at 50 mg/kg, po administered every 2 days for 14 days by H and E staining based assay; assay type: organism-based; conditions: in vivo, 336 h, time 14 day
[26] = Toxicity in C57BL/6J mouse assessed as induction of catalepsy at 3 to 10 mg/kg, po measured at 30 to 60 mins; assay type: organism-based; conditions: in vivo, dose lower 3 mg/kg, time lower 30 min, dose upper 10 mg/kg, time upper 60 min
Mus musculus = organism: Mus musculus; conditions: C57BL/6J, dose 0.3-3 mg/kg, route po, time 70.0 min
[27] = Toxicity in C57BL/6J mouse assessed as reduction in baseline locomotion at 3 mg/kg, po; assay type: organism-based; conditions: in vivo

Nc1ccc(-c2cccc(F)c2)cc1
EC50 [1]: 28.9 nM

Nc1ccc(-c2ccccc2)cc1 [BIPHENYL-4-AMINE]
EC50 [1]: 342 nM

NCCc1ccc(-c2cccc(F)c2)cc1
EC50 [2]: 1.17 nM

C[C@@H](N)C(=O)Nc1ccc(-c2ccco2)cc1.Cl
Activity [3]: Non-Toxic | bioavailability [4]: 39% | Tmax [5]: 1.8 min | clearance [6]: 104 mL/min/kg | Tmax [7]: 1.5 h | Activity [8]: Non-Toxic | Cmax [9]: 292 ng/mL | solubility [10]: 7500 µg/mL | Activity [11]: Non-Toxic | Activity [12]: Non-Toxic | solubility [13]: 8640 µg/mL | Activity [14]: Non-Toxic | AUC(0-t) at 8 h [15]: 627 ng·h/mL | half-life [16]: 2.31 h | solubility [17]: 3110 µg/mL | AUC(0-inf) [18]: 634 ng·h/mL | AUC(0-t) at 8 h [19]: 323 ng·h/mL | Cmax [20]: 154 ng/mL | AUC(0-inf) [21]: 327 ng·h/mL | half-life [22]: 1.23 h | Activity [23]: Non-Toxic | Activity [24]: Non-Toxic | Activity [25]: Non-Toxic

CN(C)Cc1ccc(-c2ccccc2)cc1
Activity [26]: Non-Toxic | EC50 [2]: 9.46 nM | inhibition (Mus musculus): Dose-Dependent Effect

NCCc1ccc(Br)cc1
EC50 [2]: 9.85 nM | EC50 [1]: 66.5 nM

C[C@@H](N)C(=O)Nc1ccc(-c2ccco2)cc1
Activity [26]: Non-Toxic | solubility [10]: 710 µg/mL (≈ 3080 µM) | solubility [13]: 390 µg/mL (≈ 1690 µM) | Activity [27]: Non-Toxic | solubility [17]: 540 µg/mL (≈ 2350 µM)

NCc1ccc(-c2ccccc2)cc1
EC50 [2]: 301 nM

CN(C)Cc1ccc(-c2cccc(Cl)c2)cc1
Activity [26]: Non-Toxic
